The values below come from ChEMBL document CHEMBL5393453, “Compositions and methods of using the same for treatment of neurodegenerative and mitochondrial disease” (2021).

The data set is described as follows: Cytotoxicity against human HeLa cells expressing YFP parkin assessed as highest safety dose by DAPI staining analysis. The class given is toxicity, cell-based. The note with it: read-out: Activity.

As to `[2H]C([2H])([2H])OC1CN([C@@H]2COc3ccccc3[C@H]2Nc2ncnc3[nH]c(C(F)(F)F)cc23)C1`, the MNTC stood at 25 µM. Under `C[C@@H]1CN([C@H]2COc3cc(F)ccc3[C@@H]2Nc2ncnc3[nH]c(C(F)(F)F)cc23)CCO1` stands 25 µM; under `CN1CCN([C@H]2CCc3ccccc3[C@@H]2Nc2ncnc3[nH]c(C(F)(F)F)cc23)CC1` (single isomer, unassigned), 25 µM; under `FC(F)(F)c1cc2c(N[C@H]3c4ccccc4OC[C@@H]3C3CCCOC3)ncnc2[nH]1` (single isomer, unassigned), 25 µM.

In the case of `Fc1ccc2c(c1)OC[C@H](N1C[C@H]3COC[C@H]3C1)[C@H]2Nc1ncnc2[nH]c(C(F)(F)F)cc12` (single isomer, unassigned), the MNTC came to 25 µM. Under `c1ccc2c(c1)CC[C@@H](C1CCOCC1)[C@@H]2Nc1ncnc2[nH]c(C3CC3)cc12` stands 25 µM; under `C[C@@H]1CN([C@@H]2COc3cc(F)ccc3[C@H]2Nc2ncnc3[nH]c(C4CC4)cc23)CCO1`, 25 µM. Under `C[C@H]1CN([C@@H]2COc3ccccc3[C@H]2Nc2ncnc3[nH]c(C4CC4)cc23)CCO1` stands 25 µM; under `C[C@H]1CN([C@@H]2CCc3ccccc3[C@H]2Nc2ncnc3[nH]c(C4CC4)cc23)CCO1` (single isomer, unassigned), 25 µM; under `C[C@@H]1CN([C@@H]2CCc3ccccc3[C@H]2Nc2ncnc3[nH]c(C4CC4)cc23)CCO1` (single isomer, unassigned), 25 µM.

Regarding `CS(=N)(=O)C1CN(C2COc3ccccc3C2Nc2ncnc3[nH]c(C(F)(F)F)cc23)C1` (centres undefined), the MNTC was 25 µM. Consider `Fc1ccc2c(c1)CC[C@H](N1C[C@H]3COC[C@H]3C1)[C@H]2Nc1ncnc2[nH]c(C(F)(F)F)cc12` (single isomer, unassigned), for which the MNTC was determined as 25 µM. The result for `FC(F)OC1CN([C@H]2COc3ccccc3[C@@H]2Nc2ncnc3[nH]c(C(F)(F)F)cc23)C1` reads 25 µM. For `C[C@H]1CN([C@H]2COc3cc(F)ccc3[C@@H]2Nc2ncnc3[nH]c(C4CC4)cc23)CCO1`, the MNTC was 25 µM.

Turning to `C[C@H]1CN([C@H]2COc3cc(F)ccc3[C@@H]2Nc2ncnc3[nH]c(C(F)(F)F)cc23)CCO1`, the MNTC was 25 µM. The result for `C[C@@H]1CN([C@H]2CCc3ccccc3[C@@H]2Nc2ncnc3[nH]c(C4CC4)cc23)C[C@H](C)O1` (single isomer, unassigned) reads 25 µM. Turning to `FC(F)(F)c1cc2c(N[C@@H]3c4ccccc4OC[C@H]3N3CCOCC3)ncnc2[nH]1`, the MNTC turned out to be 25 µM. The result for `FC(F)(F)c1cc2c(N[C@@H]3c4ccccc4OC[C@H]3C3CCCOC3)ncnc2[nH]1` (some centres undefined) reads 25 µM.

Consider `FC(F)(F)c1cc2c(N[C@H]3c4ccccc4OC[C@@H]3N3CCOCC3)ncnc2[nH]1` (single isomer, unassigned), for which the MNTC stood at 25 µM. Under `FC(F)(F)c1cc2c(N[C@H]3c4ccccc4CC[C@@H]3C3CCOCC3)ncnc2[nH]1` (single isomer, unassigned) stands 25 µM; under `C[S@](=N)(=O)C1CN([C@H]2COc3ccccc3[C@@H]2Nc2ncnc3[nH]c(C(F)(F)F)cc23)C1` (single isomer, unassigned), 25 µM. Under `FC(F)(F)c1cc2c(N[C@H]3c4ccccc4CC[C@H]3C3CCOCC3)ncnc2[nH]1` stands 25 µM; under `Fc1cccc2c1CC[C@H](N1C[C@H]3COC[C@H]3C1)[C@H]2Nc1ncnc2[nH]c(C3CC3)cc12` (single isomer, unassigned), 25 µM. For `OC[C@H]1CN([C@H]2COc3ccccc3[C@@H]2Nc2ncnc3[nH]c(C(F)(F)F)cc23)CCO1` (single isomer, unassigned), the MNTC was 25 µM. For `FC(F)(F)c1cc2c(N[C@H]3c4ccccc4OC[C@H]3C3CCOCC3)ncnc2[nH]1`, the MNTC was 8.3 µM.

Take `C[C@H]1CN([C@@H]2CCc3ccccc3[C@H]2Nc2ncnc3[nH]c(C(F)(F)F)cc23)CCO1` (single isomer, unassigned): the MNTC came to 25 µM.

On to `OC(C1CCOCC1)[C@H]1COc2ccccc2[C@@H]1Nc1ncnc2[nH]c(C(F)(F)F)cc12` (some centres undefined), for which the MNTC is 25 µM.

For `Fc1ccc2c(c1)OC[C@H](N1C[C@H]3COC[C@H]3C1)[C@H]2Nc1ncnc2[nH]c(C3CC3)cc12` (single isomer, unassigned), the MNTC was 25 µM.

On to `C[C@@H]1CN([C@H]2COc3ccccc3[C@@H]2Nc2ncnc3[nH]c(C(F)(F)F)cc23)CCO1`, for which the MNTC is 25 µM. For `c1ccc2c(c1)OC[C@@H](N1C[C@H]3COC[C@H]3C1)[C@@H]2Nc1ncnc2[nH]c(C3CC3)cc12` (single isomer, unassigned), the MNTC came out at 25 µM.

In the case of `c1ccc2c(c1)CC[C@H](C1CCOCC1)[C@@H]2Nc1ncnc2[nH]c(C3CC3)cc12`, the MNTC is 25 µM. Under `c1ccc2c(c1)CC[C@@H](N1C[C@H]3COC[C@H]3C1)[C@@H]2Nc1ncnc2[nH]c(C3CC3)cc12` (single isomer, unassigned) stands 25 µM. For the compound `COC[C@@H]1CCCN1[C@H]1COc2ccccc2[C@@H]1Nc1ncnc2[nH]c(C(F)(F)F)cc12` (single isomer, unassigned), the MNTC was found to be 25 µM. The result for `C[C@H]1CN([C@@H]2COc3cc(F)ccc3[C@H]2Nc2ncnc3[nH]c(C(F)(F)F)cc23)CCO1` reads 25 µM. Under `C[C@@H]1CN([C@@H]2COc3cc(F)ccc3[C@H]2Nc2ncnc3[nH]c(C(F)(F)F)cc23)CCO1` stands 25 µM; under `C[C@@H]1CN([C@H]2CCc3ccccc3[C@@H]2Nc2ncnc3[nH]c(C(F)(F)F)cc23)C[C@H](C)O1` (single isomer, unassigned), 25 µM; under `C[C@H]1CN([C@H]2COc3ccccc3[C@@H]2Nc2ncnc3[nH]c(C(F)(F)F)cc23)CCO1`, 25 µM.

Regarding `OC(C1CCOCC1)C1COc2ccccc2C1Nc1ncnc2[nH]c(C(F)(F)F)cc12` (single isomer, unassigned), the MNTC was 25 µM. Under `OC[C@@H]1CN([C@H]2COc3ccccc3[C@@H]2Nc2ncnc3[nH]c(C(F)(F)F)cc23)CCO1` (single isomer, unassigned) stands 25 µM. For the compound `c1ccc2c(c1)OC[C@@H](N1CCOCC1)[C@@H]2Nc1ncnc2[nH]c(C3CC3)cc12` (single isomer, unassigned), the MNTC turned out to be 25 µM. `CO[C@@H]1CCN([C@@H]2COc3ccccc3[C@H]2Nc2ncnc3[nH]c(C(F)(F)F)cc23)C1`: the MNTC amounted to 25 µM. The result for `FC1COCCC1[C@H]1COc2ccccc2[C@@H]1Nc1ncnc2[nH]c(C(F)(F)F)cc12` (single isomer, unassigned) reads 25 µM; that for `FC(F)(F)c1cc2c(N[C@H]3c4ccccc4OC[C@H]3N3CCOCC3)ncnc2[nH]1`, 25 µM; that for `C[C@@H]1CN([C@@H]2CCc3ccccc3[C@H]2Nc2ncnc3[nH]c(C(F)(F)F)cc23)C[C@H](C)O1` (single isomer, unassigned), 25 µM. Under `Fc1cccc2c1CC[C@H](N1C[C@H]3COC[C@H]3C1)[C@H]2Nc1ncnc2[nH]c(C(F)(F)F)cc12` (single isomer, unassigned) stands 25 µM. For `CO[C@@H]1CCN([C@H]2COc3ccccc3[C@@H]2Nc2ncnc3[nH]c(C4CC4)cc23)C1`, the MNTC is 25 µM. Under `Fc1ccc2c(c1)OC[C@H](N1C[C@@H]3COC[C@H]3C1)[C@H]2Nc1ncnc2[nH]c(C(F)(F)F)cc12` (single isomer, unassigned) stands 25 µM; under `C[S@@](=N)(=O)C1CN(C2COc3ccccc3C2Nc2ncnc3[nH]c(C(F)(F)F)cc23)C1` (single isomer, unassigned), 25 µM. The result for `Fc1ccc2c(c1)CC[C@@H](N1CCOCC1)[C@@H]2Nc1ncnc2[nH]c(C3CC3)cc12` reads 25 µM; that for `Fc1ccc2c(c1)CC[C@@H](N1C[C@@H]3COC[C@H]3C1)[C@@H]2Nc1ncnc2[nH]c(C(F)(F)F)cc12`, 25 µM. The result for `Fc1cccc2c1CC[C@@H](N1C[C@H]3COC[C@H]3C1)[C@@H]2Nc1ncnc2[nH]c(C(F)(F)F)cc12` (single isomer, unassigned) reads 25 µM; that for `FC(F)(F)c1cc2c(N[C@@H]3c4ccccc4CC[C@@H]3C3CCOCC3)ncnc2[nH]1`, 25 µM. `c1ccc2c(c1)OC[C@H](C1CCOCC1)[C@@H]2Nc1ncnc2[nH]c(C3CC3)cc12`: the MNTC amounted to 25 µM.

Consider `Fc1cccc2c1CC[C@@H](N1C[C@H]3COC[C@H]3C1)[C@@H]2Nc1ncnc2[nH]c(C3CC3)cc12` (single isomer, unassigned), for which the MNTC amounted to 25 µM. Under `Fc1ccc2c(c1)OC[C@H](N1C[C@H]3COC[C@@H]3C1)[C@H]2Nc1ncnc2[nH]c(C(F)(F)F)cc12` (single isomer, unassigned) stands 25 µM; under `c1ccc2c(c1)CC[C@@H](C1CCOCC1)[C@H]2Nc1ncnc2[nH]c(C3CC3)cc12`, 25 µM.

On to `COC[C@H]1CCCN1[C@H]1COc2ccccc2[C@@H]1Nc1ncnc2[nH]c(C(F)(F)F)cc12` (single isomer, unassigned), for which the MNTC amounted to 25 µM. Under `CO[C@H]1CCN([C@@H]2COc3ccccc3[C@H]2Nc2ncnc3[nH]c(C4CC4)cc23)C1` stands 25 µM; under `c1ccc2c(c1)OC[C@@H](C1CCOCC1)[C@H]2Nc1ncnc2[nH]c(C3CC3)cc12`, 25 µM; under `Fc1ccc2c(c1)OC[C@@H](N1CCOCC1)[C@@H]2Nc1ncnc2[nH]c(C3CC3)cc12` (single isomer, unassigned), 25 µM. Under `C[C@H]1COCCN1[C@@H]1CCc2ccccc2[C@H]1Nc1ncnc2[nH]c(C(F)(F)F)cc12` (single isomer, unassigned) stands 25 µM; under `C[C@@H]1COCCN1[C@@H]1CCc2ccccc2[C@H]1Nc1ncnc2[nH]c(C(F)(F)F)cc12` (single isomer, unassigned), 25 µM. The result for `FC(F)(F)c1cc2c(N[C@@H]3c4ccccc4CC[C@H]3C3CCOCC3)ncnc2[nH]1` (single isomer, unassigned) reads 25 µM; that for `CO[C@H]1CCN([C@@H]2COc3ccccc3[C@H]2Nc2ncnc3[nH]c(C(F)(F)F)cc23)C1`, 25 µM.
